The values below come from patent US12064426B2, “Selective inhibitors of ROCK1 and ROCK2 protein kinases and uses thereof” (GENOSCO Inc., priority 2021, dated 2024).

Assay [1] deals with T1, Recombinant ROCK2 (amino acids 5-554) (Homo sapiens, UniProt O75116).
T1 construct: ROCK2 (amino acids 5-554); by word order, ROCK2 from SignalChem
Description: ROCK inhibition assay, LANCE Ultra TR-FRET kinase assay (ROCK2). In kind it is biochemical. The settings on record: 4 μM ATP, 50 nM ULight-CREBtide substrate. The method, boiled down: (§1)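 LANCE Ultra TR-FRET kinase assay with recombinant ROCK1 (aa 1-477) or ROCK2 (aa 5-554), 50 nM ULight-CREBtide and ATP at 1 μM (ROCK1) or 4 μM (ROCK2) in HEPES pH 7.5 with MgCl2, 1 h at room temperature. EDTA stop with Eu anti-phospho-CREB Ser133 antibody; 665/615 nm read gives IC50.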
For orientation: In TR-FRET formats the signal depends on donor and acceptor labels being close together.

In assay [2] the target is T2, Recombinant ROCK1 (amino acids 1-477) (Homo sapiens, UniProt Q13464).
T2 construct: Recombinant ROCK1 (amino acids 1-477); by word order, ROCK1 from Carna Biosciences
T2 sequence (Q13464 1-477): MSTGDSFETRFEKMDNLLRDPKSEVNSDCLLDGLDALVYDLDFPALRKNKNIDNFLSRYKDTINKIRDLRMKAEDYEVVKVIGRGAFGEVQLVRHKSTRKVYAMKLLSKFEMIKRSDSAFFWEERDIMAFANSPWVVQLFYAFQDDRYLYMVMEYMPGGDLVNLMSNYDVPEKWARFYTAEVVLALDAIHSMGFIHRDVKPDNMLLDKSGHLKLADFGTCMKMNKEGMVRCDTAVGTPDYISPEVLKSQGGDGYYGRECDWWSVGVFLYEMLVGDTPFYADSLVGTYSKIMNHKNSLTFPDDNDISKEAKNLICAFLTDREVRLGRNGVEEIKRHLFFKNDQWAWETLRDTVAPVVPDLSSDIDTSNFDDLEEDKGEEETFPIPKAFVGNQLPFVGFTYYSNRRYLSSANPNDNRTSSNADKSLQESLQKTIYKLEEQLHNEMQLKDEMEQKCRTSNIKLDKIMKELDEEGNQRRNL
Description: ROCK inhibition assay, LANCE Ultra TR-FRET kinase assay (ROCK1). In kind it is biochemical. The settings on record: 1 μM ATP, 50 nM ULight-CREBtide substrate. In a few lines:
as §1

The term IC50 denotes the point on the concentration scale where inhibition reaches its midpoint.

T1 sequence (O75116 5-554): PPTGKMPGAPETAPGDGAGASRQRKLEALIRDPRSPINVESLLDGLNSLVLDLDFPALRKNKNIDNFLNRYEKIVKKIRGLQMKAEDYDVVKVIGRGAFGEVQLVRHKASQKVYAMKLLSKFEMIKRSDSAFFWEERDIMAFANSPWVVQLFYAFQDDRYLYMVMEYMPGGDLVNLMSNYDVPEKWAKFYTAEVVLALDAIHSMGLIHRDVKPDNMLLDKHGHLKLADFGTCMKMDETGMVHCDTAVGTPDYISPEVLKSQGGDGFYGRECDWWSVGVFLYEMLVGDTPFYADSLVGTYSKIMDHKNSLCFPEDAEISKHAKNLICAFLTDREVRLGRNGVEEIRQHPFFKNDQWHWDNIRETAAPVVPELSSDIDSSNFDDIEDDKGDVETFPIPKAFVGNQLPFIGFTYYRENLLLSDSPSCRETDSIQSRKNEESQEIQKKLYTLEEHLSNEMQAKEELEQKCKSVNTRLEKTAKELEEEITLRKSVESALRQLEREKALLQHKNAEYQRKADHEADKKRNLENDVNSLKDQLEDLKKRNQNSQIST

In the case of `COc1cccc(C(CO)n2cnc3cc(-c4cn[nH]c4C(F)(F)F)ccc3c2=O)c1` (stereo not drawn) [Compound 490], the IC50 fell in the range of 10 to 100 nM in assay [1] and 11 to 100 nM in assay [2].
For `COc1cccc(Cn2cnc3cc(-c4ccnc(N)c4)ccc3c2=O)c1` [Compound 364] the same measures were 10 to 100 nM and 11 to 100 nM.
In the case of `CNC(=O)c1cccc(Cn2ccc3cc(-c4cn[nH]c4F)ccc3c2=O)c1` [Compound 297], the IC50 in assay [1] was under 10 nM; in assay [2] it was 11 to 100 nM.
The corresponding values for `O=C(NC1CCNCC1)c1cccc(Cn2cnc3cc(-c4cn[nH]c4Cl)ccc3c2=O)c1` [Compound 409] are under 10 nM and under 10 nM.
In the case of `O=C(NC1CCNCC1)c1cc(F)cc(Cn2ccc3cc(-c4c[nH]nc4C(F)(F)F)ccc3c2=O)c1` [Compound 131], the IC50 in assay [1] and in assay [2] was under 10 nM throughout.
Regarding `O=C(NCC1COC1)c1cccc(Cn2ccc3cc(-c4c[nH]nc4C(F)(F)F)ccc3c2=O)c1` [Compound 53], the 50% inhibitory concentration (IC50) in assay [1] is under 10 nM; in assay [2], 11 to 100 nM.
For `Cc1nocc1-c1ccc2c(=O)n(Cc3cc(F)cc(C(=O)Nc4ccn(C)n4)c3)ccc2c1` [Compound 156], the IC50 in assay [1] is under 10 nM; in assay [2], 11 to 100 nM.
For `COc1cccc(Cn2ccc3cc(-c4c[nH]nc4C)ccc3c2=O)c1` [Compound 4] the same measures were under 10 nM and 11 to 100 nM.
For the molecule `[2H]C([2H])([2H])NC(=O)c1cccc(Cn2ccc3cc(-c4conc4C)ccc3c2=O)c1` [Compound 307], the results for the 50% inhibitory concentration (IC50) in assay [1] and in assay [2] were under 10 nM and 11 to 100 nM, respectively.
For `[2H]C([2H])([2H])NC(=O)c1cccc(Cn2ccc3cc(-c4cn[nH]c4Br)ccc3c2=O)c1` [Compound 513] the same measures were under 10 nM and 11 to 100 nM.
Take `Cc1[nH]ncc1-c1ccc2c(=O)n(C(CO)c3cccc(Cl)c3)cnc2c1` (stereo not drawn) [Compound 485]: the results for the concentration for half-maximal inhibition (IC50) in assay [1] and in assay [2] were 10 to 100 nM and 11 to 100 nM, respectively.
The corresponding values for `CN1CCC(NC(=O)c2cccc(Cn3ccc4cc(-c5ccnn5C)ccc4c3=O)c2)CC1` [Compound 106] are under 10 nM and under 10 nM.
For `CS(=O)(=O)Nc1ccc(NC(=O)c2cccc(Cn3cnc4cc(-c5cn[nH]c5C(F)(F)F)ccc4c3=O)c2)cc1` [Compound 385] the same measures were 10 to 100 nM and 101 to 500 nM.
For `O=C(NCCO)c1cccc(Cn2cnc3cc(-c4cn[nH]c4C(F)(F)F)ccc3c2=O)c1` [Compound 384] the same measures were 10 to 100 nM and 11 to 100 nM.
As to `[2H]C([2H])([2H])NC(=O)c1cccc(Cn2cnc3cc(-c4conc4C)ccc3c2=O)c1` [Compound 412], the IC50 is under 10 nM in assay [1] and 11 to 100 nM in assay [2].
On to `Cc1n[nH]cc1-c1ccc2c(=O)n(Cc3cccc(C(=O)Nc4ccccc4OC(F)(F)F)c3)ccc2c1` [Compound 38], for which the IC50 in assay [1] is 100 to 500 nM; in assay [2], over 501 nM.
For `CNC(=O)c1cc(F)cc(Cn2cnc3cc(-c4cn[nH]c4C(F)F)ccc3c2=O)c1` [Compound 401] the same measures were under 10 nM and 11 to 100 nM.
For `C[C@H](c1cccc(C(=O)NCCO)c1)n1cnc2cc(-c3ccnn3C)ccc2c1=O` [Compound 480] the same measures were 10 to 100 nM and 101 to 500 nM.
For `CNC(=O)c1cccc(Cn2cc(CCO)c3cc(-c4cn[nH]c4C(F)(F)F)ccc3c2=O)c1` [Compound 546, 3-((4-(2-hydroxyethyl)-1-oxo-6-(5-(trifluoromethyl)-1H-pyrazol-4-yl)isoquinolin-2(1H)-yl)methyl)-N-methylbenzamide] the same measures were under 10 nM and 11 to 100 nM.
As for `COc1cccc([C@@H](CO)N2CNc3cc(-c4cn[nH]c4Cl)ccc3C2=O)c1` [Compound 530], the results for the half-maximal inhibitory concentration (IC50) in assay [1] and in assay [2] were 10 to 100 nM and over 501 nM, respectively.
For `C[C@H](c1cccc(C(=O)NC2CCN(C)CC2)c1)n1cnc2cc(-c3cn[nH]c3Cl)ccc2c1=O` [Compound 464] the same measures were under 10 nM and under 10 nM.
